# Literature values as cited in patent US11390612B2, “Polymorphic forms of Afatinib free base and Afatinib dimaleate” (FRESENIUS KABI ONCOLOGY LIMITED, priority 2015, dated 2022).
# Settings: as observed in WO 2013/052157
smiles,measurement,setting,value
CN(C)C/C=C/C(=O)Nc1cc2c(Nc3ccc(F)c(Cl)c3)ncnc2cc1O[C@H]1CCOC1.O=C(O)/C=C\C(=O)O.O=C(O)/C=C\C(=O)O [form A of Afatinib dimaleate],polymorphic conversion after absorbing moisture,after absorbing moisture,converts to form E of Afatinib dimaleate
same,hygroscopicity,,hygroscopic in nature
